Measured values published in patent publication US5958943A, “[A]-anellated pyrrole derivatives and their use in pharmacology” (Merckle GmbH, priority 1994, dated 1999).
pIC50: −log10 of the molar value.

What was measured:
mouse = assay: Formalin analgesia test in the mouse p.o.; format: in vivo
Text: The spectrum of efficacy of the compounds was also investigated using the following tests:
2) Formalin analgesia test in the mouse p.o., B. Rubin et al., Endocrinol.,49:429-439, 1951;

cyclooxygenase = molecular target: T1, cyclooxygenase (Bos taurus, UniProt O62664); assay: Inhibition of cyclooxygenase (CO), according to Dannhardt et al.; format: biochemical; conditions: Table 1 column IC50 LO/CO, second value
T1 construct: endogenous in cells
T1 sequence (O62664 25-600): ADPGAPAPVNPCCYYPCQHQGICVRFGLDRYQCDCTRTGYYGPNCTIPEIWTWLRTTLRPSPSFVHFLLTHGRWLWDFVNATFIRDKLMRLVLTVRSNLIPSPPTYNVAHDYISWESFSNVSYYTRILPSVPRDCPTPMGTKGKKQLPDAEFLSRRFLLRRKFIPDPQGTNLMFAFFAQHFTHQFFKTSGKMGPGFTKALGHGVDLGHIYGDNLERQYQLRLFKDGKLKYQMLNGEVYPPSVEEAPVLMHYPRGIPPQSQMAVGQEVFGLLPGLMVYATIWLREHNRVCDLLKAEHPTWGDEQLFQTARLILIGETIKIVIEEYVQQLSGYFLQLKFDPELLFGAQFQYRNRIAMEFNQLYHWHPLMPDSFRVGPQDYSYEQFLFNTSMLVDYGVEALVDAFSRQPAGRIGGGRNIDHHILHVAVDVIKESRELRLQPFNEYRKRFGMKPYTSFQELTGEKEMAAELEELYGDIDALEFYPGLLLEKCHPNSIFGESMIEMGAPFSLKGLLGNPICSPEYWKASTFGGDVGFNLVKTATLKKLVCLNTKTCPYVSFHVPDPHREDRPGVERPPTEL
Text: (§1) The efficacy of the compounds according to the invention can be determined from the inhibition of 5-lipoxygenase or cyclooxygenase. Experiments have be carried out according to Dannhardt et al., J. Pharm. Pharmacol. 1992, 44: 419-424.

5-lipoxygenase = molecular target: T2, 5-lipoxygenase (Bos taurus, UniProt F1MQ78); assay: Inhibition of 5-lipoxygenase (LO), according to Dannhardt et al.; format: biochemical; conditions: Table 1 column IC50 LO/CO, first value
T2 construct: endogenous in cells
T2 sequence (F1MQ78 1-674): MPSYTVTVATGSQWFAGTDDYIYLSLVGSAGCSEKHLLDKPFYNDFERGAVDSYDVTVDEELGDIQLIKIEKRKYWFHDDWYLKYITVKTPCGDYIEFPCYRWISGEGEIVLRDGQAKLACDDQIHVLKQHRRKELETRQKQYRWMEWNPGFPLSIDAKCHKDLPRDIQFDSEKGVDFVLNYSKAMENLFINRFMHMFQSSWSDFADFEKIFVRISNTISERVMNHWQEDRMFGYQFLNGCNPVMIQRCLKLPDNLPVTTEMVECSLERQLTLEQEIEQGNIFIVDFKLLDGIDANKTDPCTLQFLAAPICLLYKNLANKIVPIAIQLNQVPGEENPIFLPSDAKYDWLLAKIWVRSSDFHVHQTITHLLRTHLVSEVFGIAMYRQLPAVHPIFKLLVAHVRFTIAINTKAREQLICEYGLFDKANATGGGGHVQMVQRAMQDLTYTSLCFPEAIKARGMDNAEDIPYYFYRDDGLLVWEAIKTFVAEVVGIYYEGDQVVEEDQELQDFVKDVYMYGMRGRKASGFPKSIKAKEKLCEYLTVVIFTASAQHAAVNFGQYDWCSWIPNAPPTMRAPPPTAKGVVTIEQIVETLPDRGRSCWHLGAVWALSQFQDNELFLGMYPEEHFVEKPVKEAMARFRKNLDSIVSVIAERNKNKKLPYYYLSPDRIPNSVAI
Text: as §1

SMILES	minimal effective dose (mouse; po, formalin analgesia model of the mouse, comparison compound, read-out: MED)	pIC50 (cyclooxygenase)	times more analgesically effective than the corresponding 4-chlorophenyl derivative (mouse; in vivo, compared with the corresponding 4-chlorophenyl derivative)	pIC50 (5-lipoxygenase)
CC1(C)Cc2c(-c3ccccc3)c(-c3ccc(Cl)cc3)c(CC(=O)O)n2C1 [corresponding 4-chlorophenyl derivative, reference compound]	100 mg/kg			
CC1(C)Cc2c(-c3ccccc3)c(-c3ccc(Cl)s3)c(CC(=O)O)n2C1 [Example 1]		6.70	10 times	6.40
